Melting point data for 1 molecule are collected here from patent publication US20080171662A1, “Aminocarbonyl-Substituted Thiensulfonylamino(Thio)Carbonyl-Triazolin(Ethi)Ones, Processes For Their Preparation And Their Use” (priority 2004, published 2008).

As to `CCOc1nn(C(=O)NS(=O)(=O)c2c(C(=O)N(C)C)csc2C)c(=O)n1C` [Example 1, 5-ethoxy-4-methyl-2-[(4-dimethylaminocarbonyl-2-methylthien-3-yl)sulfonylaminocarbonyl]-2,4-dihydro-3H-1,2,4-triazol-3-one], the melting point was determined as 162 °C.

A word on the melting point: it is the temperature of the solid-liquid transition.
